Data set [1] has as its system subintestinal vessels (SIVs) of wild type zebrafish. The data set is described as follows: Ectopic subintestinal vessel (SIV) sprouting in wild type zebrafish (AP staining / confocal imaging). The following applies: for ectopic SIV branching: 3.5 dpf wild type larva treated with 10 μM at 2.5 dpf, vs DMSO. It is filed as in vivo. How it is done:
(§1) FIG. 6 illustrates quantitation of SW vascular plexus width and ectopic ventral SW sprout number and length. The maximal width of the normal SIV plexus is measured from supraintestinal artery to subintestinal vein (1). The number of ectopic sprouts greater than 1 μm in length projecting ventrally from the subintestinal vein is counted, and the total length of all of these sprouts (2) is measured. […] Scale bar 30 μm.
Zebrafish Husbandry and Injection: Zebrafish were raised by standard methods. The Tg(fli1:EGFP)^y1, Tg(fli1:nEGFP)^y7 [Yaniv et al., Nat Med 12, 711-716 (2006)] and Tg(flt1:YFP)^hu4624 [Hogan et al., Nat Genet 41, 396-398 (2009)] lines were previously derived. MOs and DNA were injected as further described below.
(§2) Microangiography and Cell Transplants: 10 μM Atorvastatin (Sigma), 1 ug/μl DiI-LDL (Invitrogen), 6 μg/ml C6 in 0.5% BSA Fatty Acid Free (Sigma A8806) and Human Apolipoprotein B-100 (A50220H Meridian Life Science) in 0.5% BSA Fatty Acid Free (Sigma A8806) microangiography was performed at 2.5 dpf as described [Isogai et al., Dev Biol 230, 278-301 (2001)]. HEK293 cells co-transfected with Huh7MTP+apoB34 (see herein below) or un-transfected control cells were transplanted into the perivitelline space of one side of the yolk of 2.5 dpf stl; Tg(fli1:EGFP)^y1 mutant or WT embryos, ventral to the developing SIVs [Nicoll et al., J Cell Mol Med (2008)].
(§3) In Situ Hybridization, Oil Red 0, and Alkaline Phosphatase (AP) Staining: Embryos were fixed overnight in 4% PFA and processed for AP staining [Habeck et al., Curr Biol 12, 1405-1412 (2002)], Oil Red 0 staining [Schlegel et al., Biochemistry 45, 15179-15187 (2006)], or whole-mount in situ hybridization using antisense mRNA probes for vegfr1, vegfr2, vegfr3 and VeCad as described [Pham et al., Dev Biol 303, 772-783 (2007)].
Microscopy and Imaging: Zebrafish embryos used for imaging or in situ hybridization were treated with 0.00 3% phenylthiourea from 8hpf to inhibit melanin pigment formation. […]

Data set [2] has as its system trunk ISVs. Kind of data set: Trunk intersegmental vessel (ISV) phenotype of morpholino-injected zebrafish. It is filed as in vivo. The following applies: 3.5 dpf MO-injected zebrafish. As to the method:
Microscopy and Imaging: Zebrafish embryos used for imaging or in situ hybridization were treated with 0.00 3% phenylthiourea from 8hpf to inhibit melanin pigment formation. Confocal imaging was performed using a FVIOOO Olympus imaging system or Zeiss LSM780 upright confocal microscope equipped with ×20 NA 1.0 lens.
Injection of Zebrafish Embryos: The mtp [Schlegel, A. & Stainier, D. Y. Biochemistry 45, 15179-15187 (2006)], apoCII [Pickart, M. A., et al. PLoS One 1, e104 (2006);
MOs (Gene-Tools) were resuspended and injected at concentrations from 5-20 ng/embryo.

For data set [3], the system named is stl mutants. Kind of data set: Rescue of ectopic SIV sprouts in stl mutant zebrafish. It counts as in vivo. The conditions noted are these: for excess angiogenesis / ectopic branching phenotype of stl mutants: intravascular supply at 2.5 dpf. As to the method: as §1
Cloning of mtp and Rescue of the Mutant Phenotype: The full-length coding sequence of zebrafish mtp was amplified by PCR from WT cDNA and cloned into a pCSDest vector [Villefranc et al., Dev Dyn 236, 3077-3087 (2007)] as further described herein below. mtp mRNA was synthesized with mMessage mMachine kit (Ambion) and injected at a concentration of 232 pg per embryo into the 1 cell stage cytoplasm or into the YSL at dome stage (approximately at 4 hpf).
as §2, §3
pCS2vegfrlCDS mRNA ([…]) and pCS2mtpCDSmRNA ([…]) were injected at the 1 cell stage or at dome stage, respectively.
(§4) Fatty Acids Feeding of Zebrafish Embryos: Dechorionized 24 hours post fertilization (hpf) embryos were incubated with 6 μg/ml short, intermediate or long chain fatty acid in a solution containing 0.1% BSA Fatty Acid Free (Sigma A8806) for 48 hours. Embryos were then fixed overnight in 4% PFA and processed for AP staining.

Data set [4] has as its system apoCII morphants. Kind of data set: Fatty acid feeding of apoCII morphants, trunk ISV phenotype. It counts as in vivo, zebrafish. The following applies: medium supplemented with 6 μg/ml (C6). How it is done: as §4
Data set [5] concerns WT zebrafish embryos. Kind of data set: Survival of WT zebrafish embryos treated with oleic acid. It is filed as in vivo. The following applies: increasing concentrations. How it is done: FIG. 11 is a survival curve of WT zebrafish embryos treated with increasing concentrations of oleic acid. Only embryos treated with less than 6 μg/ml oleic acid survived until 6 dpf.
[6] abbreviates: stl mutants injected intravascularly at 2.5 dpf, vs not injected.

`CC(C)c1c(C(=O)Nc2ccccc2)c(-c2ccccc2)c(-c2ccc(F)cc2)n1CC[C@@H](O)C[C@@H](O)CC(=O)O` [atorvastatin, Atorvastatin]: the “ectopic SIV branching” value is recorded as “efficiently phenocopied the excess angiogenesis phenotype of stl mutants” in data set [1] and “results in ectopic SW branching” in data set [1] (listed as Atorvastatin).

“vegfr1 MO: vegfr1 ATG blocking morpholino, SEQ ID NO: 1, 5′-ATATCGAACATTCTCTTGGTCTTGC-3′ (all phosphorodiamidate morpholino (PMO))”: the “ectopic SIV sprouts after morpholino injection” value in data set [1] (3.5 dpf Tg(fli-EGFP)y1 zebrafish, MO-injected) is “ectopic SIV sprouts”. The “trunk ISV phenotype” value in data set [2] was “ectopic branching and sprouting”.

In the case of `CCCCCC(=O)O` [scFA], the “ectopic vessels phenotype of stl mutants” value in data set [3] (3.5 dpf stl mutants, 6 μg/ml fatty acid in embryo medium) is “did not inhibit the ectopic vessels phenotype”. Moreover, the “excess angiogenesis / ectopic branching phenotype of stl mutants” value in data set [3] is listed as “did not rescue the ectopic branching phenotype”. For the same compound, the “trunk ISV phenotype of apoCII morphants” value in data set [4] was “No phenotypic changes were detected”.

Take `CCCCCCCC/C=C\CCCCCCCC(=O)O` [oleic acid]: the “oleic acid concentration at which embryos survived until 6 dpf” value in data set [5] is recorded as “less than 6 μg/ml”.

As to “delipidated form of apoB-100: Human Apolipoprotein B-100 (A50220H Meridian Life Science)”, the “excess angiogenesis / ectopic branching phenotype of stl mutants” value in data set [3] was “efficiently reverted the excess angiogenesis phenotype”. In data set [3] (setting [6]), the “average number of ectopic SIV segments” value was “significantly reduced” and the “average total length of ectopic SIV segments” value is given as “significantly reduced”.

The record behind these values is patent US9617331B2, “Methods of regulating angiogenesis by administering agents which increase apoB-100 polypeptide” (Yeda Research and Development Co. Ltd., priority 2011, dated 2017).
